Assay results from patent US12129246B1, “Hydroquinazoline derivatives for the treatment of a disease or disorder” (Novartis AG, priority 2023, dated 2024).
Read-outs that look alike come from different tables or passages of the source.

Legend:
human NPR1 = target: T1, human NPR1 (Homo sapiens, UniProt P16066); test: Cellular cGMP production assay, human NPR1 expressing CHO-K1 cells (CisBio HTRF); format: cell-based; conditions: for AC50: cGMP production, 30 min at 37° C., 12-point dose-response from 30 μM; for Human NPR1 Amax (% of ANP): maximum cGMP production as percentage of the maximum cGMP produced with ANP
T1 construct: host or cells: CHO-K1
T1 sequence (P16066 33-1061): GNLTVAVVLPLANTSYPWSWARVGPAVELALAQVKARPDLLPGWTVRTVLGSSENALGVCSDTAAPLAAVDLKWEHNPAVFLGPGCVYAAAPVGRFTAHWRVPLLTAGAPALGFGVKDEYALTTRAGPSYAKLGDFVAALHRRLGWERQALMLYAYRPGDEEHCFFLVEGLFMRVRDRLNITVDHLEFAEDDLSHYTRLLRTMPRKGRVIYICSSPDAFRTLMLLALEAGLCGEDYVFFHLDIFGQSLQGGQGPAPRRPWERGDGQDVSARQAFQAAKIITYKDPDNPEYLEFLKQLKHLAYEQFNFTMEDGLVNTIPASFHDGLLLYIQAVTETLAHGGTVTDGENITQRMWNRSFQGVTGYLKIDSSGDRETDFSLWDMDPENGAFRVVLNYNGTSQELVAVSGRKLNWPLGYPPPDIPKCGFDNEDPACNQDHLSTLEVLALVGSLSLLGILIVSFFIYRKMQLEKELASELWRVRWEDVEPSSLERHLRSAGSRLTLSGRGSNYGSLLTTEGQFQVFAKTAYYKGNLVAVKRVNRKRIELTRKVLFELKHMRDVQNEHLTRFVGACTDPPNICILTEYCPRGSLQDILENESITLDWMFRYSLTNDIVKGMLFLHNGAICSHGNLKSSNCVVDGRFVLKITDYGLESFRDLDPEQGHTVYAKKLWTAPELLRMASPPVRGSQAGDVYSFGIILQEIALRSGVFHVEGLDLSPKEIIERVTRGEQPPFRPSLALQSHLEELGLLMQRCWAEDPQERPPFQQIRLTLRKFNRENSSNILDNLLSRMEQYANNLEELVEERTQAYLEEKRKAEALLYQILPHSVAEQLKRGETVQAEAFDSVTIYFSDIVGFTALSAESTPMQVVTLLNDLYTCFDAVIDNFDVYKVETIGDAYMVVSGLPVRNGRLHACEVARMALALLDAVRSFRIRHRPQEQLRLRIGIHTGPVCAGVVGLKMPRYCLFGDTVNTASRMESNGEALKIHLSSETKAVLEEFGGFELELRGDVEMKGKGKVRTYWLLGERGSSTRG
Procedure: (§1) Cellular cGMP is a major second messenger that mediates cell activities and is synthesized by activated NPR1 triggered by binding of the natural ligand ANP. […] The assay was performed according to manufacturer's instructions with minor deviations. […] All compound stocks were diluted in PBS+0.1% BSA at 2-fold the final assay concentration. After addition of 10 μL/well of assay buffer (PBS+0.1% BSA+1 mM IBMX) and 10 μL/well of the compounds in different concentrations (12-point dose-response with 3-fold dilutions from a top concentration of 30 μM), the plate was incubated for 30 min at 37° C. to allow for cGMP production. In parallel, a standard curve using a calibrator (contained in the kit) was generated. The cells were lysed and a mix of cGMP-d2 and anti-cGMP-cryptate was added and incubated for 1 h at room temperature. The readout was performed using an Envision plate reader (PerkinElmer) with an excitation wavelength of 317 nm and an emission wavelength of 665 nm. cGMP concentration (Delta F [° %]) was calculated according to the following formulae: […]

monkey NPR1 = monkey NPR1 (Macaca fascicularis, UniProt A0A7N9DBT9); test: Cellular cGMP production assay, monkey NPR1 expressing CHO-K1 cells (CisBio HTRF); format: cell-based; conditions: for Monkey NPR1 Amax (% of ANP): maximum cGMP production as percentage of the maximum cGMP produced with ANP
Sequence of monkey NPR1 (A0A7N9DBT9 entry or part of it): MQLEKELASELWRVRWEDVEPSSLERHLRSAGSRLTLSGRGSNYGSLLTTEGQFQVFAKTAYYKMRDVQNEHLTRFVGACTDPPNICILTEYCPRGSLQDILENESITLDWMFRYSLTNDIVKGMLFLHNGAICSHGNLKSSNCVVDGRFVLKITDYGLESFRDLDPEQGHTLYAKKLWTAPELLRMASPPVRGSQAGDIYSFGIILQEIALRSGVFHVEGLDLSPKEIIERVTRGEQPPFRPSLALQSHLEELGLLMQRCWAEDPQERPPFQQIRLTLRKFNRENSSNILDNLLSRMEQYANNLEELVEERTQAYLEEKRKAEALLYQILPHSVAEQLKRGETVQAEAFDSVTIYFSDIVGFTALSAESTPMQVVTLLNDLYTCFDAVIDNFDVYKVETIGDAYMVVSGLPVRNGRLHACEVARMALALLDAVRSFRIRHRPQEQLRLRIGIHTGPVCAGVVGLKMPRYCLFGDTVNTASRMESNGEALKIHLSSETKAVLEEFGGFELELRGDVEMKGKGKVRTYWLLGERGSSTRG
Procedure: as §1

[1] = cGMP production, monkey NPR1 CHO-K1 cells, 30 min at 37° C., 12-point dose-response from 30 μM, read-out: Monkey NPR1 AC50

SMILES | AC50 (human NPR1) | Human NPR1 Amax (% of ANP) (human NPR1) | AC50 (monkey NPR1) | Monkey NPR1 Amax (% of ANP) (monkey NPR1; monkey NPR1 CHO-K1 cells) | AC50 (monkey NPR1; [1])
CCn1cc([C@H](CN2C3CCCC2CCC3)Nc2nc(N[C@H](C)c3ccc(C(=O)O)cc3)nc3c2C[C@H](c2cccc(F)c2)CC3)cn1 [Compound 153, 4-((R)-1-(((R)-4-(((R)-2-((1S,5S)-9-azabicyclo[3.3.1]nonan-9-yl)-1-(1-ethyl-1H-pyrazol-4-yl)ethyl)amino)-6-(3-fluorophenyl)-5,6,7,8-tetrahydroquinazolin-2-yl)amino)ethyl)benzoic acid] | 1.2 µM | 93.868 % of ANP | 0.753 µM | 98.372 % of ANP | –
CC[C@H]([C@H]1CC[C@H](C(=O)O)CC1)N(C)c1nc2c(c(N[C@@H](CN3C4CCCC3CCC4)c3cnn(C)c3)n1)C[C@H](c1cccc(F)c1)CC2 [Compound 29, (1R,4r)-4-((R)-1-(((R)-4-(((R)-2-((1S,5S)-9-azabicyclo[3.3.1]nonan-9-yl)-1-(1-methyl-1H-pyrazol-4-yl)ethyl)amino)-6-(3-fluorophenyl)-5,6,7,8-tetrahydroquinazolin-2-yl)(methyl)amino)propyl)cyclohexane-1-carboxylic acid] | 0.14 µM | 102.911 % of ANP | 0.137 µM | 128.079 % of ANP | –
CC[C@@H](Nc1nc2c(c(N[C@@H](CN3C[C@H]4CC[C@@H]3C4)c3cnn(CC)c3)n1)C[C@H](c1ccccc1)CC2)[C@H]1CC[C@H](C(=O)O)CC1 [Compound 122, (1R,4r)-4-((R)-1-(((R)-4-(((R)-2-((1R,4S)-2-azabicyclo[2.2.1]heptan-2-yl)-1-(1-ethyl-1H-pyrazol-4-yl)ethyl)amino)-6-phenyl-5,6,7,8-tetrahydroquinazolin-2-yl)amino)propyl)cyclohexane-1-carboxylic acid] | 0.574 µM | 102.209 % of ANP | – | 99.605 % of ANP | 0.411 µM
CC[C@H]([C@H]1CC[C@H](C(=O)O)CC1)N(C)c1nc2c(c(N[C@@H](CN3CCCCC3)c3ccc(=O)n(CC)c3)n1)C[C@H](c1ccccc1)CC2 [Compound 148, (1R,4r)-4-((R)-1-(((R)-4-(((R)-1-(1-ethyl-6-oxo-1,6-dihydropyridin-3-yl)-2-(piperidin-1-yl)ethyl)amino)-6-phenyl-5,6,7,8-tetrahydroquinazolin-2-yl)(methyl)amino)propyl)cyclohexane-1-carboxylic acid] | 1.08 µM | 93.518 % of ANP | – | 102.851 % of ANP | 0.834 µM
CC[C@@H](Nc1nc2c(c(N[C@@H](CN3CCC[C@H](C)C3)c3cnn(C)c3)n1)C[C@H](c1ccccc1)CC2)[C@H]1CC[C@H](C(=O)O)CC1 [Compound 32, (1R,4r)-4-((R)-1-(((R)-4-(((R)-1-(1-methyl-1H-pyrazol-4-yl)-2-((S)-3-methylpiperidin-1-yl)ethyl)amino)-6-phenyl-5,6,7,8-tetrahydroquinazolin-2-yl)amino)propyl)cyclohexane-1-carboxylic acid] | 0.144 µM | 99.842 % of ANP | – | 92.720 % of ANP | 0.084 µM
CC[C@@H](Nc1nc2c(c(N[C@@H](CN3C4CCCC3CC4)c3csc(C)n3)n1)C[C@H](c1cccc(F)c1)CC2)[C@H]1CC[C@H](C(=O)O)CC1 [Compound 127, (1R,4r)-4-((1R)-1-(((6R)-4-(((1S)-2-(8-azabicyclo[3.2.1]octan-8-yl)-1-(2-methylthiazol-4-yl)ethyl)amino)-6-(3-fluorophenyl)-5,6,7,8-tetrahydroquinazolin-2-yl)amino)propyl)cyclohexane-1-carboxylic acid] | 0.623 µM | 102.596 % of ANP | 0.355 µM | 102.089 % of ANP | –
CC[C@@H](N(C)c1nc2c(c(N[C@@H](CN3CCC[C@H](C)C3)c3cnn(C)c3)n1)C[C@](C)(c1ccccc1)CC2)C12CC(C(=O)O)(C1)C2 [Compound 8, 3-((R)-1-(methyl((R)-6-methyl-4-(((R)-1-(1-methyl-1H-pyrazol-4-yl)-2-((S)-3-methylpiperidin-1-yl)ethyl)amino)-6-phenyl-5,6,7,8-tetrahydroquinazolin-2-yl)amino)propyl)bicyclo[1.1.1]pentane-1-carboxylic acid] | 0.087 µM | 92.409 % of ANP | – | 101.778 % of ANP | 0.077 µM
CN(c1nc2c(c(N[C@@H](CN3C4CCCC3CCC4)c3cnn(C)c3)n1)C[C@H](c1ccccc1)CC2)[C@H](C1CC1)[C@H]1CC[C@H](C(=O)O)CC1 [Compound 133, (1R,4r)-4-((R)-(((R)-4-(((R)-2-((1S,5S)-9-azabicyclo[3.3.1]nonan-9-yl)-1-(1-methyl-1H-pyrazol-4-yl)ethyl)amino)-6-phenyl-5,6,7,8-tetrahydroquinazolin-2-yl)(methyl)amino)(cyclopropyl)methyl)cyclohexane-1-carboxylic acid] | 0.765 µM | 95.978 % of ANP | 0.647 µM | 99.809 % of ANP | –
CC[C@H]([C@H]1CC[C@H](C(=O)O)CC1)N(C)c1nc2c(c(N[C@@H](CN3C4CCCC3CC4)c3cnn(C)c3)n1)CN(c1ccc(F)cc1)CC2 [Compound 80, (1R,4r)-4-((1R)-1-((4-(((1R)-2-(8-azabicyclo[3.2.1]octan-8-yl)-1-(1-methyl-1H-pyrazol-4-yl)ethyl)amino)-6-(4-fluorophenyl)-5,6,7,8-tetrahydropyrido[4,3-d]pyrimidin-2-yl)(methyl)amino)propyl)cyclohexane-1-carboxylic acid] | 0.267 µM | 94.876 % of ANP | 0.137 µM | 102.546 % of ANP | –
CC[C@@H](Nc1nc2c(c(N[C@@H](CN3C4CCCC3CCC4)c3cnn(CC)c3)n1)C[C@@H](c1cccc(F)c1)CC2)[C@H]1CC[C@H](C(=O)O)CC1 [Compound 10, (1R,4r)-4-((R)-1-(((S)-4-(((R)-2-((1S,5S)-9-azabicyclo[3.3.1]nonan-9-yl)-1-(1-ethyl-1H-pyrazol-4-yl)ethyl)amino)-6-(3-fluorophenyl)-5,6,7,8-tetrahydroquinazolin-2-yl)amino)propyl)cyclohexane-1-carboxylic acid] | 0.091 µM | 96.065 % of ANP | 0.073 µM | 97.058 % of ANP | –
CC[C@H]([C@H]1CC[C@H](C(=O)O)CC1)N(C)c1nc2c(c(N[C@@H](CN3CCCC3)c3ccccc3)n1)C[C@H](c1ccccc1)CC2 [Compound 146, (1R,4r)-4-((R)-1-(methyl((R)-6-phenyl-4-(((R)-1-phenyl-2-(pyrrolidin-1-yl)ethyl)amino)-5,6,7,8-tetrahydroquinazolin-2-yl)amino)propyl)cyclohexane-1-carboxylic acid] | 1.07 µM | 104.657 % of ANP | – | 96.864 % of ANP | 0.702 µM
CC[C@@H](Nc1nc2c(c(N[C@@H](CN3C4CCCC3CCC4)c3cnn(CC)c3)n1)C[C@H](c1ccccc1)CC2)[C@H]1CC[C@H](C(=O)O)CC1 [Compound 65, (1R,4r)-4-((R)-1-(((R)-4-(((R)-2-((1S,5S)-9-azabicyclo[3.3.1]nonan-9-yl)-1-(1-ethyl-1H-pyrazol-4-yl)ethyl)amino)-6-phenyl-5,6,7,8-tetrahydroquinazolin-2-yl)amino)propyl)cyclohexane-1-carboxylic acid] | 0.217 µM | 106.664 % of ANP | 0.128 µM | 99.329 % of ANP | –
